For the first experiment, the target named is T1, MCH-1R (Rattus norvegicus, UniProt P97639).
T1 sequence (P97639 whole entry): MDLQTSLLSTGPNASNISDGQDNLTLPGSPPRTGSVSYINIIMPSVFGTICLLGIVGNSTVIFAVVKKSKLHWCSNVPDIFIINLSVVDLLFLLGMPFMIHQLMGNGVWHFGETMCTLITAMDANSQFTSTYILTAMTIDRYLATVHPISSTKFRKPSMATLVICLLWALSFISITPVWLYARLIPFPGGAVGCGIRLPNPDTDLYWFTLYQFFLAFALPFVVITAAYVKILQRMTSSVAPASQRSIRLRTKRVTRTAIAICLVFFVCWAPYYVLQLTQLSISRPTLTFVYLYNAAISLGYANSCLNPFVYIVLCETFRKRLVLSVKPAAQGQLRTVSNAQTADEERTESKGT
Assay: not given
On the set-up: host or cells: rats (in vivo). The conditions noted are these: rats; cited from earlier work.
On to `COCC1=C(C(=O)OC)[C@H](c2ccc(F)c(F)c2)N(C(=O)NCCCN2CCC(c3cccc(NC(C)=O)c3)CC2)C(=O)N1` [SNAP-7941], for which the “effects in behavioural experiments” value was “anxiolytic and antidepressant effects”.

Another experiment deals with T2, hMCH-1R (Homo sapiens, UniProt Q99705).
T2 construct: expressed in transfected cells; host or cells: CHO/Galpha16 cells (membranes)
T2 sequence (Q99705 whole entry): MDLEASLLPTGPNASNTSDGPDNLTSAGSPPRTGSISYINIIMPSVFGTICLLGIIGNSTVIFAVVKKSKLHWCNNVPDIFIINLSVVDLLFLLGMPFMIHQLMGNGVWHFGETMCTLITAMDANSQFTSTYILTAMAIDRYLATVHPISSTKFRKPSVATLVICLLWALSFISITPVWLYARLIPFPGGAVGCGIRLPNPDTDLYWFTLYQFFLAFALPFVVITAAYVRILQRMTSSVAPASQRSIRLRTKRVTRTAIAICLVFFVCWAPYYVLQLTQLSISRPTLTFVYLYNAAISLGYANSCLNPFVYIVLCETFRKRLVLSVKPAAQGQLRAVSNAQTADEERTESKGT
Nature of the experiment: MCH-1 receptor binding test (125I-MCH binding to membranes of hMCH-1R transfected CHO/Galpha16 cells).
Conditions: not given
Here is the method: Membranes from CHO/Galpha16 cells stably transfected with human hMCH-1R are resuspended using a syringe (needle 0.6×25 mm) and diluted in test buffer (50 mM HEPES, 10 mM MgCl2, 2 mM EGTA, pH 7.00; 0.1% bovine serum albumin (protease-free), 0.021% bacitracin, 1 μg/ml aprotinin, 1 μg/ml leupeptin and 1 μM phosphoramidone) to a concentration of 5 to 15 μg/ml.
After the incubation the reaction is filtered using a cell harvester through 0.5% PEI treated fibreglass filters (GF/B, Unifilter Packard). The membranebound radioactivity retained on the filter is then determined after the addition of scintillator substance (Packard Microscint 20) in a measuring device (TopCount of Packard). The non-specific binding is defined as bound radioactivity in the presence of 1 micromolar MCH during the incubation period.
The analysis of the concentration binding curve is carried out on the assumption of one receptor binding site.
Usually IC50 stands for the concentration that inhibits the measured activity by half. As to `CC(=O)NC1CCN(Cc2ccc(CCn3ccc(OCc4ccsc4)cc3=O)cc2)CC1` [Example 4.2, N-[1-(4-{2-[2-Oxo-4-(thiophen-3-ylmethoxy)-2H-pyridin-1-yl]-ethyl}-benzyl)-piperidin-4-yl]-acetamide], the IC50 turned out to be 8 nM. In other words, the single-digit nanomolar range. As to `O=c1cc(OCc2ccco2)ccn1CCc1ccc(CN2CCCC2)cc1` [Example 6.1, 4-(Furan-2-ylmethoxy)-1-[2-(4-pyrrolidin-1-ylmethyl-phenyl)-ethyl]-1H-pyridin-2-one], the IC50 came to 13 nM. Compared with the last molecule, the IC50 is about 1.6-fold higher. In turn, `O=c1cc(OCc2ccccc2)cnn1CCc1ccc(CN2CCCC2)cc1` [Example 21.2] displayed an IC50 of 3 nM. The molecule `O=C(Cn1ccc(OCc2ccccc2)cc1=O)c1ccc2c(c1)CCN(C(=O)C(F)(F)F)CC2` [Example 22.1, 4-Benzyloxy-1-{2-oxo-2-[3-(2,2,2-trifluoro-acetyl)-2,3,4,5-tetrahydro-1H-3-benzazepin-7-yl]-ethyl}-1H-pyridin-2-one] gave an IC50 of 51 nM.

For `O=c1cc(OCc2ccccc2)ccn1CCc1ccc2c(c1)CCNCC2` [Example 23.2, 4-Benzyloxy-1-[2-(2,3,4,5-tetrahydro-1H-3-benzazepin-7-yl)-ethyl]-1H-pyridin-2-one], the IC50 amounted to 7 nM. This IC50 is about 7.3-fold lower than that of the molecule before.

In turn, `O=c1cc(OCc2ccccc2)ccn1CCc1ccc2c(c1)CCNC2` [Example 27.2, 4-Benzyloxy-1-[2-(1,2,3,4-tetrahydro-isoquinolin-6-yl)-ethyl]-1H-pyridin-2-one] registered an IC50 of 8 nM. `O=c1cc(OCc2ccccc2)ccn1CCc1ccc(CN2CCCC2)s1` [Example 28.1, 4-Benzyloxy-1-[2-(5-pyrrolidin-1-ylmethyl-thiophen-2-yl)-ethyl]-1H-pyridin-2-one] showed an IC50 of 26 nM. Molecule `O=C(Cn1ccc(OCc2ccccc2)cc1=O)c1ccc(CN2CCC(O)CC2)cc1` [Example 29.3, 4-Benzyloxy-1-{2-[4-(4-hydroxy-piperidin-1-ylmethyl)-phenyl]-2-oxo-ethyl}-1H-pyridin-2-one] showed an IC50 of 16 nM. As to `CC1(O)CCN(Cc2ccc(C(=O)Cn3ccc(OCc4ccccc4)cc3=O)cc2)CC1` [Example 29.4], the IC50 turned out to be 16 nM.

Regarding `O=C(Cn1ccc(OCc2ccccc2)cc1=O)c1ccc(CN2CC[C@@H](O)C2)cc1` [Example 29.11], the IC50 turned out to be 14 nM. In turn, `O=C(Cn1ccc(OCc2ccccc2)cc1=O)c1ccc(CN2CC(O)C2)cc1` [Example 29.13] registered an IC50 of 18 nM. Take `O=C(Cn1ncc(OCc2ccccc2)cc1=O)c1ccc(CN2CCC(O)CC2)cc1` [Example 32.2]: the IC50 was found to be 12 nM. `CC1(O)CCN(Cc2ccc(C(=O)Cn3ncc(OCc4ccccc4)cc3=O)cc2)CC1` [Example 32.3]: the IC50 is 9 nM. For `O=C(Cn1ncc(OCc2ccccc2)cc1=O)c1ccc(CNCC2CC2)cc1` [Example 32.8], the IC50 was found to be 6 nM. For the molecule `CN1CCN(Cc2ccc(C(=O)Cn3ncc(OCc4ccccc4)cc3=O)cc2)CC1` [Example 32.10], the IC50 came out at 23 nM. This IC50 lies about 3.8-fold higher than the previous one. Still for that read-out and setting: next, `O=C(Cn1ncc(OCc2ccc(Cl)cn2)cc1=O)c1ccc(CN2CCCC2)cc1` [Example 33.8]: 19 nM; `O=C(Cn1cnc(OCc2ccccc2)cc1=O)c1ccc(CN2CCCCC2)cc1` [Example 34.3]: 16 nM. `CN1Cc2ccc(C(=O)Cn3ccc(OCc4ccccc4)cc3=O)cc2C1` [Example 37.2, 4-Benzyloxy-1-[2-(2-methyl-2,3-dihydro-1H-isoindol-5-yl)-2-oxo-ethyl]-1H-pyridin-2-one] yielded an IC50 of 33 nM. This IC50 is about 2.1-fold higher than that of the molecule before.

In the case of `O=c1cc(OCc2ccc(Br)cn2)ccn1CC(O)c1ccc2c(c1)CNCC2` (centres unmarked) [Example 39.1, 4-(5-Bromo-pyridin-2-ylmethoxy)-1-[2-hydroxy-2-(1,2,3,4-tetrahydro-isoquinolin-7-yl)-ethyl]-1H-pyridin-2-one], the IC50 amounted to 34 nM. `O=C(Cn1ncc(OCc2ccccc2)cc1=O)c1ccc2c(c1)CNCC2` [Example 41.1, 5-Benzyloxy-2-[2-oxo-2-(1,2,3,4-tetrahydro-isoquinolin-7-yl)-ethyl]-2H-pyridazin-3-one] returned an IC50 of 17 nM. As for `CN1CCc2ccc(C(=O)Cn3ncc(OCc4ccccc4)cc3=O)cc2C1` [Example 42.1, 5-Benzyloxy-2-[2-(2-methyl-1,2,3,4-tetrahydro-isoquinolin-7-yl)-2-oxo-ethyl]-2H-pyridazin-3-one], the IC50 is 14 nM. As to `CN1CCc2sc(C(=O)Cn3ncc(OCc4ccccc4)cc3=O)cc2C1` [Example 44.2, 5-Benzyloxy-2-[2-(5-methyl-4,5,6,7-tetrahydro-thieno[3,2-c]pyridin-2-yl)-2-oxo-ethyl]-2H-pyridazin-3-one], the IC50 turned out to be 20 nM. This IC50 and that of the molecule before are within 1.5-fold of each other.

`CN1CCc2cc(C(=O)Cn3ccc(OCc4ccccc4)cc3=O)ccc2C1` [Example 46.2, 4-Benzyloxy-1-[2-(2-methyl-1,2,3,4-tetrahydro-isoquinolin-6-yl)-2-oxo-ethyl]-1H-pyridin-2-one] returned an IC50 of 21 nM.

`CC(c1ccc(C(=O)Cn2ncc(OCc3ccccc3)cc2=O)cc1)N1CCN(C)CC1` (centres unmarked) [Example 47.5]: the IC50 worked out at 27 nM.

The next experiment deals with T1, MCH-1R.
Assay: not given
On the set-up: host or cells: whole animals (in vivo). The conditions noted are these: animals treated with the antagonist; cited from earlier work.
For `COCC1=C(C(=O)OC)[C@H](c2ccc(F)c(F)c2)N(C(=O)NCCCN2CCC(c3cccc(NC(C)=O)c3)CC2)C(=O)N1` [SNAP-7941], the “body weight effect in long term trials” value was “lose significant amounts of weight”.
